According to patent publication US12018280B2, “Method for freezing aggregates of pluripotent stem cell-derived cardiomyocytes” (KYOTO UNIVERSITY, priority 2016, dated 2024):

Assays:
[1] = test system: aggregate of GCaMP-cardiomyocytes derived from human iPS cells; experiment: GCaMP fluorescence wave (intracellular calcium) drug response of cardiomyocyte aggregates after freeze-thaw; type: cell-based; conditions: for change of PtP (beat interval): 300 nM isoproterenol, 1 μM propranol; for change of TtP, CAD50, CAD70 and CAD90: 300 nM E4031, 1 μM astemizole, 1 μM nifekalant, 10 μM chromanole 293b, 30 μM mexiletine, 50 nM nifedipine
Excerpt: A gene encoding GCaMP3, which is a calcium sensitive GFP that emits GFP fluorescence when bound to intracellular calcium, was introduced into a human iPS cell line (253G1) or a monkey iPS cell line (HT4M2) by AAVS1 region-specific gene transfer mediated by CRISPR. From the human GCaMP3-iPS cells, cardiomyocytes were induced in the same manner as in Section 1 to prepare an aggregate of cardiomyocytes that emitted GFP fluorescence in response to the change in intracellular calcium concentration during the beating. Also, from the monkey GCaMP-iPS cells, cardiomyocytes were induced using cytokines as described previously (Nat Biotechnol. 2007 September; 25(9): 1015-24. Epub 2007 Aug. 26) to prepare an aggregate of cardiomyocytes that emitted GFP fluorescence in response to the change in intracellular calcium concentration. Specifically, the monkey GCaMP-iPS cells were cultured for 24 hours with RPMI-B27 medium (Invitrogen) supplemented with human recombinant activin A (R&D Systems) (100 ng/ml), and then for four days with RPMI-B27 medium supplemented with human recombinant BMP4 (R&D Systems) (10 ng/ml). After the medium was replaced with RPMI-B27 medium without these cytokines, the cells were cultured for 21 days. The GCaMP-cardiomyocytes were dispersed into single cells with a trypsin/collagenase solution, and seeded on Sumilon PrimeSurface 96-well V-bottom plates at 1×10^5 cells/well to form uniform aggregates (700 to 1000 μm in diameter). The aggregates were used to analyze the change in intracellular calcium concentration wave, which synchronized the beating of cardiomyocytes.
derived from human iPS cells seven days after thawing to compare parameters of GCaMP fluorescence wave (change in intracellular calcium ion concentration) before and 10 minutes after the E4031 addition. Analyzed were time from the rise to the peak of fluorescence wave (TtP), and time from the rise to the peak of fluorescence wave and then to the decrease to 50% of the peak value (CaD50), to 70% of the peak value (CaD70), or to 90% of the peak value (CaD90) (FIG. 5-A).
E4031 was added to an aggregate of GCaMP-cardiomyocytes derived from human iPS cells seven days after thawing at 0, 0.3, 3, 30, or 300 nM to analyze the rate of change with E4031.

[2] = test system: aggregate of GCaMP-cardiomyocytes derived from human iPS cells; experiment: Cardiotoxicity of anthracycline in cardiomyocyte aggregates after freeze-thaw (GCaMP fluorescence); type: cell-based
Method: To detect cardiotoxicity of anthracycline anticancer agents, doxorubicin (10 μM) or daunorubicin (20 μM), was added for 24 hours to an aggregate of GCaMP-cardiomyocytes derived from human iPS cells seven days after thawing. The intracellular calcium wave was plotted with GCaMP fluorescence for an aggregate of cardiomyocytes without any agent (control) (FIGS. 8-A, 8-B), three days after the addition of doxorubicin (FIG. 8-C), or three days after the addition of daunorubicin (FIG. 8-D).
The change in parameters of GCaMP fluorescence wave was analyzed with the addition of doxorubicin (10 μM) or daunorubicin (20 μM) (FIGS. 9-A, 9-B).

[3] = test system: cardiomyocytes induced from pluripotent stem cells; conditions: cardiomyocytes induced by the method described in WO 2015/182765; cited from earlier work
[4] = 50 μM ryanodine, seven days after thawing
[5] = doxorubicin 10 μM or daunorubicin 20 μM

## ryanodine
[1]; [4]
  change of PtP (beat interval): increased PtP
  peak value of GCaMP fluorescence (PeakValue, intracellular calcium increase): decreased

## COc1cccc2c1C(=O)c1c(O)c3c(c(O)c1C2=O)C[C@@](O)(C(C)=O)C[C@@H]3O[C@H]1C[C@H](N)[C@H](O)[C@H](C)O1 [daunorubicin]
[2]; [5]
  amplitude of GCaMP fluorescence wave: tended to decrease significantly
  change of PtP: significantly decreased
  change of TtP and CAD: not significantly changed
[2]; doxorubicin 10 μM or daunorubicin 20 μM added for 24 hours, three days after the addition
  intracellular calcium wave findings (cardiotoxicity): short PtP, tachycardia, variable heartbeat interval, and arrhythmia

## CC(C)NCC(O)c1ccc(O)c(O)c1 (centres unmarked) [isoproterenol]
[1]; [4]
  change of PtP (beat interval): decreased PtP

## Cn1c(NCCN(CCO)CCCc2ccc([N+](=O)[O-])cc2)cc(=O)n(C)c1=O [nifekalant]
[1]; seven days after thawing
  change of TtP, CAD50, CAD70 and CAD90: extended

## CCS(=O)(=O)N(C)[C@H]1c2cc(C#N)ccc2OC(C)(C)[C@@H]1O [chromanole 293b]
[3]
  effect on action potential: prolongation of action potential
[1]; seven days after thawing
  change of TtP, CAD50, CAD70 and CAD90: extended

## Cc1cccc(CCN2CCC(C(=O)c3ccc(NS(C)(=O)=O)cc3)CC2)n1 [E4031]
[3]
  effect on action potential: prolongation of action potential
[1]; seven days after thawing
  change of TtP, CAD50, CAD70 and CAD90: extended
[1]; 300 nM, 10 minutes after addition vs before, aggregate seven days after thawing
  extension of all GCaMP fluorescence wave parameters (TtP, CaD50, CaD70, CaD90): around 40%
[1]; tested at 0, 0.3, 3, 30, 300 nM, seven days after thawing
  concentration at or above which TtP, CAD50, CAD70 and CAD90 were extended in a concentration-dependent manner: ≥ 3 nM

## COc1ccc(CCN2CCC(Nc3nc4ccccc4n3Cc3ccc(F)cc3)CC2)cc1 [astemizole]
[1]; seven days after thawing
  change of TtP, CAD50, CAD70 and CAD90: extended

## Cc1cccc(C)c1OCC(C)N (centres unmarked) [mexiletine]
[1]; seven days after thawing
  change of TtP, CAD50, CAD70 and CAD90: extended

## CC(C)NCC(O)COc1cccc2ccccc12 (centres unmarked) [propranol]
[1]; [4]
  change of PtP (beat interval): increased PtP
